We go through 83 compounds from ChEMBL document CHEMBL3714766, “Tetrahydroisoquinoline compounds and their use as pyruvate dehydrogenase kinase inhibitors” (2015).

SMILES strings stand for the structures.

The assay addresses Pyruvate dehydrogenase kinase (Homo sapiens, UniProt Q15119+Q15120+Q16654+Q15118). The assay is described as follows: Binding affinity to pyruvate dehydrogenase kinase (unknown origin) by VER-00160364 probe based fluorescence polarization assay. (In general: In fluorescence polarisation assays a small probe gives low polarisation when free and higher when bound to something large.)
As to `Cc1c(Cl)nc(Cl)nc1-c1ccc2c(c1)CC[C@H](C)N2C(=O)c1ccc(O)cc1O`, the IC50 (in general, the concentration that gives 50% inhibition) is 100 nM.
The result for `CC1CCc2cc(C(=O)N(C)c3cccc(F)c3)ccc2N1C(=O)c1ccc(O)cc1O` (stereo not drawn) reads 100 nM.
As for `CC1CCc2cc(-c3ncccc3C#N)ccc2N1C(=O)c1ccc(O)cc1O` (stereo not drawn), the figure is 100 nM; as for `Cc1cnc(Cl)nc1-c1ccc2c(c1)CCC(C)N2C(=O)c1ccc(O)cc1O` (stereo not drawn), 10 nM; as for `CC1CCc2cc(C(=O)N(C)CC(F)(F)F)ccc2N1C(=O)c1cc(Cl)c(O)cc1O` (stereo not drawn), 100 nM.
As for `COCCNc1ncc(C)c(-c2ccc3c(c2)CC[C@H](C)N3C(=O)c2ccc(O)cc2O)n1`, the figure is 100 nM.
In the case of `CC1CCc2cc(C(=O)N(C)Cc3nc4ccccc4n3C)ccc2N1C(=O)c1ccc(O)cc1O` (stereo not drawn), the IC50 stood at 100 nM.
As for `CC1CCc2cc(C(=O)N(C)Cc3ccc(Cl)cc3)ccc2N1C(=O)c1ccc(O)cc1O` (stereo not drawn), the IC50 came to 10 nM.
The result for `COc1ccc(CN(C)C(=O)c2ccc3c(c2)CC[C@@H](C)N3C(=O)c2ccc(O)cc2O)cc1` reads 10000 nM.
The result for `C[C@H]1CCc2cc(-c3ccnc(N)n3)ccc2N1C(=O)c1ccc(O)cc1O` reads 100 nM; that for `CC1CCc2cc(-c3ccnn3C)ccc2N1C(=O)c1ccc(O)cc1O` (stereo not drawn), 100 nM.
As for `C[C@H]1CCc2cc(C(=O)N(C)Cc3ccc(F)cc3)ccc2N1C(=O)c1ccc(O)cc1O`, the figure is 100 nM; as for `Cc1cnc(-c2ccc3c(c2)CCC(C)N3C(=O)c2cc(Cl)c(O)cc2O)n1C` (stereo not drawn), 1000 nM.
Consider `CC1CCc2cc(C(=O)N(C)Cc3ccc(F)cc3)ccc2N1C(=O)c1ccc(O)cc1O` (stereo not drawn), for which the IC50 came out at 10 nM.
As for `CC1CCc2cc(C(=O)N3CCC3)ccc2N1C(=O)c1ccc(O)cc1O` (stereo not drawn), the figure is 100 nM; as for `O=C(c1ccc(O)cc1O)N1CCCc2cc(-c3ncccc3C(F)(F)F)ccc21`, 1000 nM; as for `N#Cc1cccnc1-c1ccc2c(c1)CCCN2C(=O)c1ccc(O)cc1O`, 1000 nM.
With `C[C@H]1CCc2cc(C(=O)N(C)Cc3cc4ccccc4[nH]3)ccc2N1C(=O)c1ccc(O)cc1O`, the IC50 was 100 nM.
The result for `CC1CCc2cc(-c3ncccc3Cl)ccc2N1C(=O)c1ccc(O)cc1O` (stereo not drawn) reads 100 nM.
`Cc1cnc(NCCN(C)C)nc1-c1ccc2c(c1)CC[C@H](C)N2C(=O)c1ccc(O)cc1O` displayed an IC50 of 1000 nM.
Consider `CC1CCc2cc(C(=O)N(C)Cc3ccc(Cl)cc3)ccc2N1C(=O)c1cc(Cl)c(O)cc1O` (stereo not drawn), for which the IC50 stood at 100 nM.
As for `C[C@H]1CCc2cc(C(=O)N(C)Cc3ccnc(Cl)c3)ccc2N1C(=O)c1ccc(O)cc1O`, the figure is 100 nM; as for `CC1CCc2cc(C(=O)N(C)Cc3cccnc3)ccc2N1C(=O)c1ccc(O)cc1O` (stereo not drawn), 100 nM.
As for `Cc1nc(N(C)C)nc(-c2ccc3c(c2)CC[C@H](C)N3C(=O)c2ccc(O)cc2O)c1C`, the figure is 1000 nM; as for `C[C@H]1CCc2cc(-c3nc(Cl)nc4c3COCC4)ccc2N1C(=O)c1ccc(O)cc1O`, 100 nM.
The result for `CC1CCc2cc(-c3ncccc3C(F)(F)F)ccc2N1C(=O)c1ccc(O)cc1O` (stereo not drawn) reads 100 nM.
The compound `C[C@H]1CCc2cc(C(=O)N(C)CC(F)(F)F)ccc2N1C(=O)c1ccc(O)cc1O` came in with an IC50 of 100 nM.
In turn, `C[C@H]1CCc2cc(-c3nccc4occc34)ccc2N1C(=O)c1ccc(O)cc1O` came in with an IC50 of 1000 nM.
The result for `C[C@H]1CCc2cc(C(=O)N(C)Cc3ccc4c(ccn4C)c3)ccc2N1C(=O)c1ccc(O)cc1O` reads 100 nM.
As for `Cc1nc(C)c(-c2ccc3c(c2)CC[C@H](C)N3C(=O)c2ccc(O)cc2O)s1`, the half-maximal inhibitory concentration (IC50) stood at 1000 nM.
The compound `CC1CCc2cc(C(=O)N(C)CCc3ccccn3)ccc2N1C(=O)c1ccc(O)cc1O` (stereo not drawn) came in with an IC50 of 100 nM.
As for `O=C(c1ccc(O)cc1O)N1CCCc2cc(-c3ncccc3Cl)ccc21`, the figure is 1000 nM.
The result for `Cc1nc(C)c(-c2ccc3c(c2)CCCN3C(=O)c2ccc(O)cc2O)s1` reads 100 nM.
As for `CC1CCc2cc(-c3nccn3C)ccc2N1C(=O)c1ccc(O)cc1O` (stereo not drawn), the figure is 100 nM; as for `CC1CCc2cc(-c3occc3C#N)ccc2N1C(=O)c1ccc(O)cc1O` (stereo not drawn), 1000 nM.
`O=C(c1ccc2c(c1)CCCN2C(=O)c1ccc(O)cc1O)N1CCC1`: the IC50 worked out at 1000 nM.
As for `Cn1nccc1-c1ccc2c(c1)CCCN2C(=O)c1ccc(O)cc1O`, the figure is 100 nM; as for `Cc1nccnc1-c1ccc2c(c1)CCC(C)N2C(=O)c1ccc(O)cc1O` (stereo not drawn), 100 nM; as for `Cc1ccnnc1-c1ccc2c(c1)CCC(C)N2C(=O)c1ccc(O)cc1O` (stereo not drawn), 100 nM.
Compound `CN(CCN)C(=O)c1ccc2c(c1)CCCN2C(=O)c1ccc(O)cc1O` displayed an IC50 of 1000 nM.
In turn, `C[C@H]1CCc2cc(C(=O)N(C)Cc3ccc[n+](C)c3)ccc2N1C(=O)c1ccc(O)cc1O` showed an IC50 of 100 nM.
In the case of `CC1CCc2cc(C(=O)N3Cc4ccccc4C3)ccc2N1C(=O)c1ccc(O)cc1O` (stereo not drawn), the IC50 was determined as 100 nM.
As for `COc1ccc(CN(C)C(=O)c2ccc3c(c2)CCC(C)N3C(=O)c2ccc(O)cc2O)cc1OC` (stereo not drawn), the figure is 100 nM.
As for `CC(c1cc2ccccc2o1)N(C)C(=O)c1ccc2c(c1)CCC(C)N2C(=O)c1ccc(O)cc1O` (stereo not drawn), the figure is 100 nM.
In the case of `Cn1ccnc1-c1ccc2c(c1)CCCN2C(=O)c1ccc(O)cc1O`, the IC50 is 1000 nM.
The result for `CC1CCc2cc(-c3nccn3C)ccc2N1C(=O)c1cc(Cl)c(O)cc1O` (stereo not drawn) reads 1000 nM.
Consider `COc1ccc(CN(C)C(=O)c2ccc3c(c2)CCC(C)N3C(=O)c2ccc(O)cc2O)cc1` (stereo not drawn), for which the half-inhibitory concentration (IC50) is 10 nM.
As for `CCc1cnc(C)nc1-c1ccc2c(c1)CC[C@H](C)N2C(=O)c1ccc(O)cc1O`, the IC50 is 100 nM.
With `CC1CCc2cc(-c3ncccc3C(F)(F)F)ccc2N1C(=O)c1cc(Cl)c(O)cc1O` (stereo not drawn), the IC50 came to 1000 nM.
As for `COc1ccccc1CN(C)C(=O)c1ccc2c(c1)CCC(C)N2C(=O)c1ccc(O)cc1O` (stereo not drawn), the figure is 100 nM; as for `CN(CCNC(=O)OC(C)(C)C)C(=O)c1ccc2c(c1)CCCN2C(=O)c1ccc(O)cc1O`, 1000 nM.
`Cc1cccnc1-c1ccc2c(c1)CC[C@@H](C)N2C(=O)c1ccc(O)cc1O` came in with an IC50 of 10000 nM.
As for `CC1CCc2cc(C(=O)N(C)Cc3cc4ccccc4[nH]3)ccc2N1C(=O)c1ccc(O)cc1O` (stereo not drawn), the figure is 100 nM; as for `Cc1nc(C)c(-c2ccc3c(c2)CCC(C)N3C(=O)c2ccc(O)cc2O)s1` (stereo not drawn), 10 nM; as for `C[C@H]1CCc2cc(-c3ncccc3Cl)ccc2N1C(=O)c1ccc(O)cc1O`, 100 nM.
The result for `Cc1cccnc1-c1ccc2c(c1)CCCN2C(=O)c1ccc(O)cc1O` reads 1000 nM.
`Cc1cn(C)c(-c2ccc3c(c2)CCC(C)N3C(=O)c2cc(Cl)c(O)cc2O)n1` (stereo not drawn) showed an IC50 of 1000 nM.
Compound `C[C@H]1CCc2cc(C(=O)N(C)Cc3ccnc4ccccc34)ccc2N1C(=O)c1ccc(O)cc1O` registered an IC50 of 10 nM.
`C[C@H]1CCc2cc(C(=O)N(C)C)ccc2N1C(=O)c1ccc(O)cc1O` registered a half-maximal inhibitory concentration (IC50) of 100 nM.
In turn, `Cc1cccnc1-c1ccc2c(c1)CCCN2C(=O)c1cc(C(F)(F)F)c(O)cc1O` registered an IC50 of 10000 nM.
Regarding `C[C@H]1CCc2cc(C(=O)N(C)Cc3ccc(Cl)cc3)ccc2N1C(=O)c1ccc(O)cc1O`, the half-maximal inhibitory concentration (IC50) stood at 100 nM.
The result for `Cc1cccnc1-c1ccc2c(c1)CC[C@H](C)N2C(=O)c1ccc(O)cc1O` reads 100 nM; that for `Cc1ccnnc1-c1ccc2c(c1)CC[C@H](C)N2C(=O)c1ccc(O)cc1O`, 100 nM; that for `CC1CCc2cc(C(=O)N(C)Cc3ccc(Cl)c(Cl)c3)ccc2N1C(=O)c1ccc(O)cc1O` (stereo not drawn), 100 nM.
In turn, `C[C@H]1CCc2cc(C(=O)N3CCN(C(=O)OC(C)(C)C)CC3)ccc2N1C(=O)c1ccc(O)cc1O` showed a half-maximal inhibitory concentration (IC50) of 1000 nM.
Turning to `Cc1cccnc1-c1ccc2c(c1)CCC(C)N2C(=O)c1ccc(O)cc1O` (stereo not drawn), the IC50 was determined as 100 nM.
As for `CC1CCc2cc(C(=O)N(C)Cc3cnn(C)c3)ccc2N1C(=O)c1ccc(O)cc1O` (stereo not drawn), the figure is 100 nM; as for `C[C@H]1CCc2cc(-c3ncccc3C(F)(F)F)ccc2N1C(=O)c1ccc(O)cc1O`, 100 nM.
The result for `Cc1cnc(Cl)nc1-c1ccc2c(c1)CC[C@@H](C)N2C(=O)c1ccc(O)cc1O` reads 10000 nM; that for `C[C@H]1CCc2cc(-c3nc(C(F)(F)F)ccc3C(F)(F)F)ccc2N1C(=O)c1ccc(O)cc1O`, 1000 nM.
The result for `CC1CCc2cc(-c3ncccc3Cl)ccc2N1C(=O)c1cc(Cl)c(O)cc1O` (stereo not drawn) reads 1000 nM; that for `CC1CCc2cc(C(=O)N(C)Cc3nc4ccccc4s3)ccc2N1C(=O)c1ccc(O)cc1O` (stereo not drawn), 100 nM.
For `Cc1nc(C)c(-c2ccc3c(c2)CCC(C)N3C(=O)c2cc(Cl)c(O)cc2O)s1` (stereo not drawn), the IC50 is 1000 nM.
The compound `Cc1nc(N)ccc1-c1ccc2c(c1)CC[C@H](C)N2C(=O)c1ccc(O)cc1O` registered an IC50 of 100 nM.
The result for `C[C@H]1CCc2cc(-c3ncccc3C#N)ccc2N1C(=O)c1ccc(O)cc1O` reads 100 nM; that for `C[C@@H]1CCc2cc(C(=O)N(C)C)ccc2N1C(=O)c1ccc(O)cc1O`, 10000 nM; that for `CC1CCc2cc(C(=O)N(C)Cc3nc4ccccc4[nH]3)ccc2N1C(=O)c1ccc(O)cc1O` (stereo not drawn), 100 nM.
Compound `Cc1cccnc1-c1ccc2c(c1)CCC(C)N2C(=O)c1cc(Cl)c(O)cc1O` (stereo not drawn) showed an IC50 of 100 nM.
The result for `CC1CCc2cc(C(=O)N(C)Cc3cc4cc(F)ccc4[nH]3)ccc2N1C(=O)c1ccc(O)cc1O` (stereo not drawn) reads 100 nM; that for `Cc1cnc(NC(C)C)nc1-c1ccc2c(c1)CC[C@H](C)N2C(=O)c1ccc(O)cc1O`, 100 nM; that for `CC1CCc2cc(-c3ncccc3C#N)ccc2N1C(=O)c1cc(Cl)c(O)cc1O` (stereo not drawn), 1000 nM.
The compound `C[C@H]1CCc2cc(C(=O)N(C)Cc3cccc4c3ccc[n+]4C)ccc2N1C(=O)c1ccc(O)cc1O` came in with an IC50 of 100 nM.
As for `CN(CC(=O)O)C(=O)c1ccc2c(c1)CCCN2C(=O)c1ccc(O)cc1O`, the figure is 1000 nM.
